Data on five compounds can be found in US7271239B2, “D-isomers of antimicrobial peptide” (The Research Foundation of State University of New York, priority 2004, dated 2007).

The test system of one data set is Candida strains. It counts as cell-based. An excerpt:
(§1) Killing assays in saliva. […] Saliva without peptides was a blank control.
(§2) Activity of peptides in saliva against different candida strains. The in vitro candidacidal activities of MUC7 12-mer-L and D, Hsn5 12-mer, and Magainin-II against four Candida strains in clarified saliva are shown in Table 1. The data are presented as percent loss of cell viability compared to non-treated control. The following observations were made. […] In the presence of PIC, the activity values of MUC7 12-mer-L and of Magainin-II rose close to a 100% for all strains, but not that of Hsn5 peptide, which achieved the similar activity only against the C. albicans (ATCC strain). The activities against the other strains were much lower, in particular against both strains of C. glabrata (30-40%). […] This was true especially in saliva without PIC.

A further data set concerns S. mutans GS-5. The data set can be described thus: Time-kill assay. It counts as cell-based, Streptococcus mutans. To be noted: after 4 h incubation, each agent at its MIC. As for the experimental part:
FIG. 10. Time-Killing curves for S. mutans. […] Control (▪), MUC7 12-mer-L (Δ), MUC7 12-mer-D (□), MUC7 20-mer (▴), Hsn5 12-mer (×), magainin II (●), chlorhexidine (◯).
For the peptides MUC7 12-mer-L, MUC7 12-mer-D, and MUC7 20-mer, time-kill kinetic studies against S. mutans were performed by the broth macrodilution method. S. mutans GS-5 (1×10^6 CFU/ml) and antibacterial agens (find concentrations of 12.5 μM for each peptide, and 2 μM for CHX; their MICs) were incubated in 25% BHI at 37° C. At the time of 0, 1, 2, 4, 8, and 24 h, samples were taken and viable counts determined as follows: The samples were serially diluted (10^−1 to 10^−4) in sterile 10 mM PBS (pH 7.2) and 50 μl aliquots were plated onto TSBY agar. The plates were incubated anaerobically at 37° C. for 48 h, followed by enumerating the CFU. Killing curves were constructed by plotting the log10 CFU per milliliter versus time over 24 h. All assays were done in duplicate on at least two occasions.

Data set [1] has as its system C. glabrata 65C (azole-resistant clinical isolate). It counts as cell-based. The settings on record: clarified saliva.
Source text: as §1, §2

The next data set concerns C. glabrata ATCC90030. The data set can be described thus: Killing assay in clarified saliva. Format: cell-based.
Source text: as §1, §2

The next data set has as its system C. albicans ATCC96112. The data set can be described thus: Killing assay in clarified saliva. Format: cell-based.
Source text: as §1, §2

For the next data set, the system named is C. krusei. The data set can be described thus: Killing assay in clarified saliva. It counts as cell-based.
Source text: as §1, §2

Another data set concerns C. albicans strain DIS. It counts as in vivo, mice ICR strain. To be noted: mouse, in vivo. As for the experimental part:
A previously described protocol was adopted (14). Mice were immunosuppressed with two subcutaneous injections of prednisolone at a dose of 100 mg/kg body weight 1 day prior to and 3 days after the infection with C. albicans. Tetracycline hydrochloride in drinking water at a concentration of 0.83 mg/ml was given to mice beginning 1 day before infection. Mice were anesthetized by intramuscular injection with 60 μl of 2 mg/ml chlorpromazine chloride, using a dose of 10 mg/kg body weight of mice. While under anesthesia, a small cotton ball soaked in 0.1 ml aliquot of C. albicans cell suspension (2.5×10^6 cells) was used to swab the entire oral cavity of the anesthetized mice.
Visual evaluation was done by carefully extending the tongue of randomly picked mice using blunt-end forceps, while the mice were under isoflurane sedation. Presence of thick, white curd-like patches indicated candidal infection. At day 3 post-infection, all animals were examined for evidence oral candidal infection by microbiological evaluation. The entire oral cavity of anesthetized mice was swabbed using a sterile calcium alginate disposable swab (Fisher Scientific), dampened with sterile PBS. Cells were then released from the swab into 1 ml PBS. Serial 10-fold dilutions were plated on SDA plates supplemented with streptomycin (30 μg/ml). Plates were incubated for 24 h at 37° C. and yeast cell count expressed as log10 of cfu/ml.
Tongues from sacrificed animals were used for histological studies. They were fixed in 10% formalin and embedded in paraffin. Serial five-μm sections were cut from the paraffin block and stained with periodic acid-Schiff (PAS) reagent for detection of C. albicans.
Mice were randomly divided into various treatment groups with 8 mice per group. Antifungal agents were employed on an equimolar basis, and included amphotericin B (1.75%), clotrimazole (0.66%), MUC7 12-mer (RKSYKCLHKRCR—SEQ ID NO:1) (L; 3%), MUC7 12-mer (D; 3%), MUC7 12-mer (D; 3%) containing Na2EDTA (1 mM), MUC7 12-mer (L; 3%) containing protease inhibitor cocktail (PIC) (1%), and Hsn5 12-mer (AKRHHGYKRKFH—SEQ ID NO:2) (3%). They were all emulsified in Pluronic F127, (20% lipoil), a polymer of polyoxyethylene and polyoxypropylene (non-ionic surfactant). Animals were anesthetized using isoflurane; while sedated, about 30 to 40 μl of the antifungal emulsion was applied on the tongue and spread throughout oral cavity. The treated mice were under sedation for additional 5 min under isoflurane. Animals were not given access to food and water for 1 h following the application.
Fungal burden was re-evaluated quantitatively after 3 and 6 days of treatment, using the same technique as the one used for initial evaluation. Randomly picked mice from each group was subjected to histopathological evaluation, after 6 days of treatment. Blood from randomly sacrificed mice from each treatment group was analyzed for any changes in the serum liver (AST, ALT, ALP etc.) and kidney enzymes (BUN, glucose, creatinine etc) levels.
Statistical analysis was performed using a significance level set at 0.05 (α) and a significant group size (n=8). Initial infection and antifungal treatment efficacy were determined using analysis of variance (ANOVA), expressed as log10 cfu, and Scheffe's multiple comparison test was used to determine the differences between various treatment groups.

Where two headings read alike, the source gives them in different places. Where a SMILES comes first, the peptide text is derived from it. Where no end group is shown, it is not given here. [ ]: non-standard residue; d: D form.

For `CC(C)C[C@@H](NC(=O)[C@@H](CS)NC(=O)[C@@H](CCCCN)NC(=O)[C@@H](Cc1ccc(O)cc1)NC(=O)[C@@H](CO)NC(=O)[C@@H](CCCCN)NC(=O)[C@H](N)CCCNC(=N)N)C(=O)N[C@H](Cc1c[nH]cn1)C(=O)N[C@H](CCCCN)C(=O)N[C@H](CCCNC(=N)N)C(=O)N[C@H](CS)C(=O)N[C@H](CCCNC(=N)N)C(=O)O` [MUC7 12-mer-D] (H-[dR][dK][dS][dY][dK][dC][dL][dH][dK][dR][dC][dR]-OH; N-terminus and C-terminus assumed), in the data set on Candida strains, the “activity (killing)” value is 47-100% and the killing is around 100%.

With `CC(C)C[C@H](NC(=O)[C@H](CS)NC(=O)[C@H](CCCCN)NC(=O)[C@H](Cc1ccc(O)cc1)NC(=O)[C@H](CO)NC(=O)[C@H](CCCCN)NC(=O)[C@@H](N)CCCNC(=N)N)C(=O)N[C@@H](Cc1c[nH]cn1)C(=O)N[C@@H](CCCCN)C(=O)N[C@@H](CCCNC(=N)N)C(=O)N[C@@H](CS)C(=O)N[C@@H](CCCNC(=N)N)C(=O)O` [MUC7 12-mer-L] (H-RKSYKCLHKRCR-OH; N-terminus and C-terminus assumed), the killing with Candida strains is listed as 44-80%.

On to GIGKFLHSAKKFGKAFVGEIMNS [Magainin-II], for which the “reduction of the viable counts of S. mutans” value in the data set on S. mutans GS-5 amounted to 3 log10. Besides, the “percent loss of cell viability” value in data set [1] (PIC+) is reported as 99.80^± %; in data set [1] (PIC−) it was 0.00%; with C. glabrata ATCC90030 (PIC+) it was 99.06^± %; with C. glabrata ATCC90030 (PIC−), 0.00%; in the data set with C. albicans ATCC96112 (PIC+), 97.90%; in the data set with C. albicans ATCC96112 (PIC−) it was 7.17%. Besides, the “percent loss of cell viability” value in the data set with C. krusei (PIC+) is reported as 100%; in the data set with C. krusei (PIC−) it was 0.00%.

With AKRHHGYKRKFH [Hsn5 12-mer], in the data set on C. albicans strain DIS, the “additional tissue change in tongue section” value is recorded as “acanthosis of the stratum spinosum”.

In the case of `[H]/N=C(\N/C(=N/[H])NCCCCCCNC(=N)NC(=N)Nc1ccc(Cl)cc1)Nc1ccc(Cl)cc1` [Chlorhexidine, Chlorhexidine digluconate], the “reduction of the viable counts of S. mutans” value in the data set on S. mutans GS-5 was determined as 1 log10.
